From PubChem BioAssay AID1963853 (Molecular Pharmacology Branch, DTP, NCI, 2024)

Test system: 266295-075-R-J1-PDC spheroid viability
Experiment: Anticancer human tumor 266295-075-R-J1-PDC patient-derived head and neck squamous carcinoma cell line growth inhibition [POLQ]
Details: spheroids with HUVEC and MSC; for IC50: curve of first compound; for viability, T/C: stronger effect = lower value
Method in brief: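 Patient-derived tumour cells were co-cultured with HUVEC and mesenchymal stem cells as multicellular spheroids at 37 °C. They were treated with POLQ inhibitors (novobiocin, ART-558, RP6685) alone or combined with other agents. Top concentrations were at or near clinical Cmax (otherwise 10 microM; SN-38 at 1 microM), decreasing in half-log steps.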

[1] = second compound 0.0316 µM, first compound 0.0316 µM
[2] = second compound 0.0316 µM, first compound 0.1 µM
[3] = second compound 0.0316 µM, first compound 0.316 µM
[4] = second compound 0.0316 µM, first compound 1 µM
[5] = second compound 0.0316 µM, first compound 3.16 µM
[6] = second compound 0.0316 µM, first compound 10 µM
[7] = second compound 0.1 µM, first compound 0.0316 µM
[8] = second compound 0.1 µM, first compound 0.1 µM
[9] = second compound 0.1 µM, first compound 0.316 µM
[10] = second compound 0.1 µM, first compound 1 µM
[11] = second compound 0.1 µM, first compound 3.16 µM
[12] = second compound 0.1 µM, first compound 10 µM
[13] = second compound 0.316 µM, first compound 0.0316 µM
[14] = second compound 0.316 µM, first compound 0.1 µM
[15] = second compound 0.316 µM, first compound 0.316 µM
[16] = second compound 0.316 µM, first compound 1 µM
[17] = second compound 0.316 µM, first compound 3.16 µM
[18] = second compound 0.316 µM, first compound 10 µM
[19] = second compound 1 µM, first compound 0.0316 µM
[20] = second compound 1 µM, first compound 0.1 µM
[21] = second compound 1 µM, first compound 0.316 µM
[22] = second compound 1 µM, first compound 1 µM
[23] = second compound 1 µM, first compound 3.16 µM
[24] = second compound 1 µM, first compound 10 µM
[25] = second compound 3.16 µM, first compound 0.0316 µM
[26] = second compound 3.16 µM, first compound 0.1 µM
[27] = second compound 3.16 µM, first compound 0.316 µM
[28] = second compound 3.16 µM, first compound 1 µM
[29] = second compound 3.16 µM, first compound 3.16 µM
[30] = second compound 3.16 µM, first compound 10 µM
[31] = second compound 10 µM, first compound 0.0316 µM
[32] = second compound 10 µM, first compound 0.1 µM
[33] = second compound 10 µM, first compound 0.316 µM
[34] = second compound 10 µM, first compound 1 µM
[35] = second compound 10 µM, first compound 3.16 µM
[36] = second compound 10 µM, first compound 10 µM
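Note: spheroids exposed to compounds for seven days before readout.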

Q: What does the source list for C#Cc1c(F)ccc2cc(O)cc(-c3ncc4c(N5CC6CCC(C5)N6)nc(OCC56CCCN5CC(F)C6)nc4c3F)c12 (centres undefined) + Nc1ccc(C#CCN(C(=O)Cc2ncc(C(F)(F)F)cc2C(F)(F)F)c2ccc(F)cc2)nn1?
A: IC50 (second compound 0.0316 µM): > 10000 nM; IC50 (second compound 0.1 µM): 7400 nM; IC50 (second compound 0.316 µM): 8300 nM; IC50 (second compound 1 µM): > 10000 nM; IC50 (second compound 3.16 µM): > 10000 nM; IC50 (second compound 10 µM): > 10000 nM; viability, T/C [1]: 86.8%; viability, T/C [2]: 89%; viability, T/C [3]: 82.9%; viability, T/C [4]: 71.6%; viability, T/C [5]: 60.8%; viability, T/C [6]: 50%; viability, T/C [7]: 90.2%; viability, T/C [8]: 103%; viability, T/C [9]: 75.2%; viability, T/C [10]: 81%; viability, T/C [11]: 67%; viability, T/C [12]: 43.7%; viability, T/C [13]: 89.2%; viability, T/C [14]: 71.7%; viability, T/C [15]: 63%; viability, T/C [16]: 84.1%; viability, T/C [17]: 60.7%; viability, T/C [18]: 47.3%; viability, T/C [19]: 114%; viability, T/C [20]: 84%; viability, T/C [21]: 70.7%; viability, T/C [22]: 68.3%; viability, T/C [23]: 56.9%; viability, T/C [24]: 54.7%; viability, T/C [25]: 80.8%; viability, T/C [26]: 90.6%; viability, T/C [27]: 74.7%; viability, T/C [28]: 68.7%; viability, T/C [29]: 71.6%; viability, T/C [30]: 64.1%; viability, T/C [31]: 91.8%; viability, T/C [32]: 73.9%; viability, T/C [33]: 82.5%; viability, T/C [34]: 63.8%; viability, T/C [35]: 64.1%; viability, T/C [36]: 52.4%

Q: With CC1COCCN1c1cc(C2(O)CC3CCC(C2)O3)c2cnn(-c3ccn[nH]3)c2n1 (centres undefined) + Nc1ccc(C#CCN(C(=O)Cc2ncc(C(F)(F)F)cc2C(F)(F)F)c2ccc(F)cc2)nn1 as the compound, how does the IC50 (second compound 0.0316 µM) read?
A: Its IC50 is 996 nM.

Q: And the IC50 (second compound 0.1 µM)?
A: The IC50 was 591 nM.

Q: What about the IC50 (second compound 0.316 µM) of the same compound?
A: Its IC50 is 324 nM.

Q: And the IC50 (second compound 1 µM)?
A: Its IC50 is 903 nM.

Q: What about the IC50 (second compound 3.16 µM) of the same compound?
A: Its IC50 is 831 nM.

Q: And the IC50 (second compound 10 µM)?
A: Its IC50 is 706 nM.

Q: And the viability, T/C [1]?
A: The viability, T/C was 80.4%.

Q: What about the viability, T/C [2] of the same compound?
A: Its viability, T/C is 112%.

Q: And the viability, T/C [3]?
A: The viability, T/C was 67.6%.

Q: What about the viability, T/C [4] of the same compound?
A: The viability, T/C was 54.4%.

Q: And the viability, T/C [5]?
A: Its viability, T/C is 42.5%.

Q: And the viability, T/C [6]?
A: The viability, T/C was 32.3%.

Q: And the viability, T/C [7]?
A: Its viability, T/C is 96.9%.

Q: What about the viability, T/C [8] of the same compound?
A: Its viability, T/C is 85.9%.

Q: And the viability, T/C [9]?
A: The viability, T/C was 53.5%.

Q: What about the viability, T/C [10] of the same compound?
A: Its viability, T/C is 46.6%.

Q: And the viability, T/C [11]?
A: The viability, T/C was 39.2%.

Q: And the viability, T/C [12]?
A: Its viability, T/C is 29.9%.

Q: What about the viability, T/C [13] of the same compound?
A: The viability, T/C was 94.9%.

Q: What about the viability, T/C [14] of the same compound?
A: Its viability, T/C is 100%.

Q: What about the viability, T/C [15] of the same compound?
A: Its viability, T/C is 50.2%.

Q: What about the viability, T/C [16] of the same compound?
A: The viability, T/C was 51.2%.

Q: And the viability, T/C [17]?
A: Its viability, T/C is 38.3%.

Q: And the viability, T/C [18]?
A: The viability, T/C was 26.9%.

Q: And the viability, T/C [19]?
A: Its viability, T/C is 86.2%.

Q: What about the viability, T/C [20] of the same compound?
A: The viability, T/C was 66.3%.

Q: What about the viability, T/C [21] of the same compound?
A: Its viability, T/C is 63.1%.

Q: And the viability, T/C [22]?
A: Its viability, T/C is 46.9%.

Q: What about the viability, T/C [23] of the same compound?
A: Its viability, T/C is 42.5%.

Q: What about the viability, T/C [24] of the same compound?
A: Its viability, T/C is 25.7%.

Q: What about the viability, T/C [25] of the same compound?
A: Its viability, T/C is 83.9%.

Q: And the viability, T/C [26]?
A: Its viability, T/C is 84.1%.

Q: And the viability, T/C [27]?
A: Its viability, T/C is 63.7%.

Q: And the viability, T/C [28]?
A: The viability, T/C was 46.8%.

Q: What about the viability, T/C [29] of the same compound?
A: The viability, T/C was 36.8%.

Q: And the viability, T/C [30]?
A: Its viability, T/C is 27.8%.

Q: And the viability, T/C [31]?
A: Its viability, T/C is 78.4%.

Q: And the viability, T/C [32]?
A: Its viability, T/C is 75.7%.

Q: What about the viability, T/C [33] of the same compound?
A: Its viability, T/C is 69.8%.

Q: And the viability, T/C [34]?
A: Its viability, T/C is 41.2%.

Q: What about the viability, T/C [35] of the same compound?
A: The viability, T/C was 30.2%.

Q: And the viability, T/C [36]?
A: The viability, T/C was 26.7%.
